Data set [1] addresses T1, BPV1 E6 (Bovine papillomavirus type 1, UniProt P06931). The data set is described as follows: SPR. The format is binding.
In data set [2] the target is T1, BPV1 E6. The format is physicochemical. The conditions noted are these: peptide provided during BPV1 E6 biosynthesis.
A further data set addresses HPV16 E6. To be noted: read-out: affinity of HPV16 E6 / E6AP; ref [29]; cited from earlier work.
For data set [3], the target named is T2, BPV1 E6 released from MBP-LXXLL-tevs-E6 by TEV protease (Bovine Papillomavirus Type 1, UniProt P06931 1-137).
T2 sequence: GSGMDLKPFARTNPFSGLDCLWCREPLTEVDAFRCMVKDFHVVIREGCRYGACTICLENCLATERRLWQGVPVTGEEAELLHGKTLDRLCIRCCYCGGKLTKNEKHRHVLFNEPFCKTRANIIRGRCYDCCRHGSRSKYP
Put plainly: SEC. Background: Size exclusion chromatography separates by hydrodynamic size, large species first.

The target of the next data set is T3, paxillin LXXLL peptide (Homo sapiens, UniProt P49023).
T3 chain: MDDLDALLADLESTT
The data set is described as follows: SPR. On the technique in general: In SPR one partner is held on a chip, and binding of the other changes the refractive index at the surface.

Consider six molecules from paper PMC3183320 (Protein expression and purification, 2011).

“Also recorded” adds a separate entry of the source.

DDLDALLADKE [paxillin]: the “dissociation phase (in words)” value on BPV1 E6 [1] (SPR sensorgrams, paxillin as compared to E6AP) is reported as “remarkably slow dissociation phase; also recorded: slow dissociation rate kinetics”. Further, at BPV1 E6 [1] (SPR, as compared to other E6/peptide interactions), the “affinity for BPV1 E6 (in words)” value is reported as “significantly higher affinity as compared to other E6/peptide interactions; also recorded: significantly stronger; also recorded: high affinity”.

In the case of “EFTMDDLDALLADKE [paxillin LXXLL peptide]”, the “effect on BPV1 E6 protein solubility (in words)” value on BPV1 E6 [2] is given as “greatly enhanced the protein’s solubility”.

On to ESSELTLQELLGEER [E6AP], for which the Kd on HPV16 E6 is 4 µM.

Consider MDDLDALLADGGSGSNENLYFQ [MBP-fused LXXLL peptide (MBP-LXXLL-tevs left after TEV digestion of MBP-LXXLL-tevs-E6)], for which the binding result in data set [3] is recorded as “binds”.

Consider EFTMDDLDALLADKE [synthetic peptide derived from paxillin (LXXLL synthetic peptide)], for which the binding result in data set [3] is listed as “binds”.

B1: E6 (protein)
chain: MDLKPFARTNPFSGLDCLWCREPLTEVDAFRCMVKDFHVVIREGCRYGACTICLENCLATERRLWQGVPVTGEEAELLHGKTLDRLCIRCCYCGGKLTKNEKHRHVLFNEPFCKTRANIIRGRCYDCCRHGSRSKYP
With B1, in the data set with paxillin LXXLL peptide, the Kd came out at 0.0351 µM.
